# Source: paper PMC9138505, “Small Molecule 20S Proteasome Enhancer Regulates MYC Protein Stability and Exhibits Antitumor Activity in Multiple Myeloma” (Biomedicines, 2022)
# Where “and” joins values, the source holds several entries; their conditions need not be identical. Identical values can stand only once.
# Test system: RPMI-8226 cells
# Test: Gene expression profiling, NanoString nCounter PanCancer Pathways Panel, ROSALIND analysis
# Type: cell-based, human
# Details: RPMI-8226, TCH-165 samples 1-3
# Method: RPMI-8226 cells were treated with vehicle or TCH-165 (10 μM) for 4 h. Total RNA was obtained using the mirVana miRNA Isolation Kit, with phenol (Thermofisher Scientific; AM1560; Waltham, MA, USA). Total RNA was quantified by Qubit (Thermofisher Scientific; Q32855; Waltham, MA, USA). and gene expression was evaluated against the nCounter® PanCancer Pathways Panel^TM according to the standard NanoString protocol.
# Data were analyzed by ROSALIND® [36] with a hyperscale architecture developed by ROSALIND, Inc. (San Diego, CA, USA). Normalization, fold changes and p-values were calculated using criteria provided by NanoString. ROSALIND follows the nCounter® Advanced Analysis protocol of dividing counts within a lane by the geometric mean of the normalizer probes from the same lane. Housekeeping probes to be used for normalization are selected based on the geNorm algorithm, as implemented in the NormqPCR R library. Fold changes and p-values are calculated using the fast method as described in the nCounter Advanced Analysis 2.0 User Manual. The p-value adjustment is performed using the Benjamini–Hochberg method of estimating false discovery rates (FDR). Clustering of genes for the final heatmap of differentially expressed genes was done using the PAM (Partitioning Around Medoids) method using the fpc R library. Hypergeometric distribution was used to analyze the enrichment of pathways, gene ontology, domain structure and other ontologies. The topGO R library was used to determine local similarities and dependencies between GO terms in order to perform Elim pruning correction. Several database sources were referenced for enrichment analysis, including Interpro [40], NCBI [41], MSigDB [42, 43], REACTOME [44], WikiPathways. Enrichment was calculated relative to a set of background genes relevant to the experiment.
structure (smiles),measurement,value
CCOC(=O)[C@]1(c2ccccc2)N=C(c2ccc(OC)cc2)N(Cc2ccccc2)[C@@H]1c1ccc(NCc2ccccc2)cc1 [TCH-165],LIFR normalized gene expression,4.488 and 4.2133 and 4.184
same,LIG4 normalized gene expression,6.629 and 6.817 and 6.796
same,LRP2 normalized gene expression,4.308 and 3.657 and 4.341
same,LTBP1 normalized gene expression,6.378 and 6.402 and 6.366
same,MAD2L2 normalized gene expression,10.1336 and 10.1942 and 10.1645
same,MAP2K1 normalized gene expression,10.0208 and 10.0248 and 9.981
same,MAP2K2 normalized gene expression,10.108 and 10.1628 and 10.1486
same,MAP2K4 normalized gene expression,7.169 and 6.524 and 6.893
same,MAP2K6 normalized gene expression,4.924 and 4.855 and 5.0068
same,MAP3K1 normalized gene expression,10.6246 and 10.5002 and 10.4469
same,MAP3K5 normalized gene expression,6.704 and 6.918 and 6.75
same,MAP3K8 normalized gene expression,6.308 and 6.569 and 6.506
same,MAP3K12 normalized gene expression,5.571 and 5.476 and 5.0682
same,MAP3K13 normalized gene expression,7.948 and 7.905 and 8.019
same,MAP3K14 normalized gene expression,7.978 and 7.887 and 7.688
same,MAPK1 normalized gene expression,8.625 and 8.638 and 8.461
same,MAPK3 normalized gene expression,9.736 and 9.67 and 9.676
same,MAPK8IP1 normalized gene expression,5.86 and 4.739 and 5.0068
same,MAPK8IP2 normalized gene expression,4.208 and 3.657 and 4.39
same,MAPK8 normalized gene expression,7.835 and 7.506 and 7.597
same,MAPK9 normalized gene expression,8.658 and 8.617 and 8.437
same,MAPK10 normalized gene expression,5.101 and 4.2133 and 4.876
same,MAPK12 normalized gene expression,7.499 and 7.109 and 7.1906
same,MAPT normalized gene expression,5.355 and 5.351 and 5.5707
same,MCM2 normalized gene expression,10.402 and 10.4329 and 10.4331
same,MCM4 normalized gene expression,11.2136 and 11.1596 and 11.149
same,MCM5 normalized gene expression,10.3105 and 10.197 and 10.1802
same,MCM7 normalized gene expression,13.0908 and 13.0284 and 12.9867
same,MDC1 normalized gene expression,10.2272 and 10.2142 and 10.1897
same,MDM2 normalized gene expression,10.4133 and 10.3393 and 10.3264
same,MECOM normalized gene expression,7.156 and 6.927 and 6.814
same,MED12 normalized gene expression,8.477 and 8.644 and 8.469
same,MEN1 normalized gene expression,9.714 and 9.644 and 9.611
same,MET normalized gene expression,5.924 and 5.093 and 5.613
same,MFNG normalized gene expression,9.115 and 9.16 and 9.044
same,MGMT normalized gene expression,8.108 and 8.085 and 8.034
same,MLF1 normalized gene expression,5.86 and 5.9093 and 5.712
same,MLH1 normalized gene expression,9.392 and 9.378 and 9.34
same,MLLT3 normalized gene expression,6.776 and 6.688 and 6.449
same,MLLT4 normalized gene expression,8.677 and 8.597 and 8.636
same,MMP3 normalized gene expression,4.401 and 3.27 and 4.341
same,MMP7 normalized gene expression,5.571 and 5.242 and 5.238
same,MMP9 normalized gene expression,4.649 and 4.855 and 4.0068
same,MNAT1 normalized gene expression,8.319 and 8.402 and 8.366
same,MPL normalized gene expression,4.308 and 4.154 and 3.805
same,MPO normalized gene expression,4.986 and 4.569 and 4.876
same,MSH2 normalized gene expression,9.884 and 9.976 and 9.945
same,MSH6 normalized gene expression,10.1754 and 9.989 and 10.0455
same,MTOR normalized gene expression,9.008 and 8.985 and 8.893
same,MUTYH normalized gene expression,6.74 and 6.512 and 6.663
same,MYB normalized gene expression,9.142 and 9.166 and 9.1468
same,MYC normalized gene expression,12.5611 and 12.5765 and 12.4952
same,MYCN normalized gene expression,7.142 and 6.817 and 6.893
same,MYD88 normalized gene expression,8.723 and 8.683 and 8.623
same,NASP normalized gene expression,8.252 and 8.093 and 8.307
same,NBN normalized gene expression,10.4814 and 10.4965 and 10.3946
same,NCOR1 normalized gene expression,9.769 and 9.64 and 9.618
same,NF1 normalized gene expression,9.325 and 9.277 and 9.208
same,NF2 normalized gene expression,9.205 and 9.097 and 9.096
same,NFATC1 normalized gene expression,5.355 and 5.427 and 5.461
same,NFE2L2 normalized gene expression,10.2602 and 10.1647 and 10.2373
same,NFKB1 normalized gene expression,8.156 and 8.124 and 8.177
same,NFKBIA normalized gene expression,9.249 and 9.354 and 9.231
same,NGFR normalized gene expression,5.445 and 5.154 and 5.098
same,NODAL normalized gene expression,5.445 and 5.093 and 4.876
same,NOG normalized gene expression,4.208 and 4.739 and 4.653
same,NOS3 normalized gene expression,5.044 and 4.524 and 4.5707
same,NOTCH1 normalized gene expression,8.62 and 8.452 and 8.261
same,NOTCH2 normalized gene expression,10.6545 and 10.568 and 10.5378
same,NPM1 normalized gene expression,7.667 and 7.529 and 7.245
same,NPM2 normalized gene expression,2.401 and 2.739 and 2.805
same,NR4A1 normalized gene expression,6.924 and 6.944 and 6.759
same,NR4A3 normalized gene expression,4.488 and 4.427 and 4.769
same,NRAS normalized gene expression,7.581 and 7.678 and 7.663
same,NTF3 normalized gene expression,7.456 and 7.1988 and 7.251
same,NTHL1 normalized gene expression,9.395 and 9.328 and 9.318
same,NTRK1 normalized gene expression,4.793 and 3.569 and 3.483
same,NTRK2 normalized gene expression,4.793 and 5.093 and 4.5707
same,NUMBL normalized gene expression,5.955 and 5.891 and 5.693
same,NUPR1 normalized gene expression,6.073 and 6.228 and 6.3536
same,OSM normalized gene expression,5.101 and 5.636 and 5.0682
same,PAK3 normalized gene expression,4.488 and 4.27 and 3.876
same,PAX3 normalized gene expression,4.649 and 4.029 and 4.0682
same,PAX5 normalized gene expression,4.986 and 3.962 and 4.693
same,PAX8 normalized gene expression,5.723 and 5.297 and 5.366
same,PBRM1 normalized gene expression,9.417 and 9.5 and 9.432
same,PBX1 normalized gene expression,8.776 and 8.575 and 8.5707
same,PBX3 normalized gene expression,6.53 and 6.427 and 6.426
same,PCK1 normalized gene expression,3.208 and 3.3768 and 3.0682
same,PCNA normalized gene expression,10.03 and 10.0442 and 10.0502
